Results published in patent US11827624B2, “Covalent immune recruiter compounds for immune cell recognition and associated uses” (McMaster University, priority 2020, dated 2023).

Experiments:
[1] = test system: monoclonal human anti-DNP antibody (mAb); assay: BLI covalent labeling kinetics assay on IgG Fc capture probes, mAb; assay type: binding
Protocol: Kinetic assays to characterize the second order rate constant (kinact/KI) describing the CIR+Ab labeling reaction involved incubating increasing concentrations of CIR 3 or CIR 5 with a fixed concentration (75 nM) of anti-DNP mmAb in solution, for different periods of time. PSMA binding to CIR-Ab complexes increases the total mass associated with the probe surface leading to signal increases (nm shift). CIR 3 (500 nM) and 75 nM of either mmAb or mAb (AcroBiosystems Catalog #DNP-M2) was reacted in 1× Kinetics Buffer (ForteBio) for four hours prior to the experiment. IgG Fc capture (ProG) probes from ForteBio were placed in 1× Kinetics Buffer for 20 minutes prior to the experiment for wetting. The experiment was conducted using an Octet Red96 (ForteBio), where the acquisition rate was set to 5 Hz and the temperature was held at 25° C. The plate shaker setting was 1000 RPM. A volume of 250 μL of each solution was loaded onto a black flat-bottom 96-well plate (Grenier). The experiment began by placing the ProG probes in 1×Kinetics Buffer for four minutes to establish a baseline. Next, the probes were placed into the CIR 3 and anti-DNP antibody reaction mixture to load the covalent complex (CIR-Ab) onto the probe. Next, the probes were placed in a solution of 5 mM DNP-glycine competitor in 1×Kinetics Buffer in order to disrupt any non-covalent or non-specific binding. The baseline was re-established by then placing the probes in 1× Kinetics Buffer for 0.5 minutes. To measure PSMA association, the probes were placed in a solution of 500 nM human PSMA protein in 1× Kinetics Buffer for 10 minutes. The probes were then placed in 1×Kinetics Buffer for 10 minutes to measure dissociation. The raw nm shift signal for the association and dissociation step obtained by the Octet Red96 was first baselined to the beginning of the association step (t=0 second) by subtracting the association signal at t=0 from the measured signal at each time point. The Kd was determined by fitting both the association and dissociation curves using the ‘association then dissociation’ binding model in GraphPad Prism 8. The experiment was repeated once for a total of two replicates.
The specific labelling of an antibody by a CIR occurs via a two-step mechanism. In the first step, the CIR binds to the antibody via its ABD and forms a reversible complex. […] This second order rate constant was determined by monitoring covalent product (CIR-Ab) formation as a function of time via BLI using IgG Fc capture probes (note: a non-specific labeling reaction occurs independent of binding to the DNP binding site with any biological nucleophile and follows second order kinetics without saturation). […]

[2] = test system: anti-DNP IgG; assay: Modified octet solution labelling kinetics assay with PSMA coated probes; assay type: binding, rabbit
Protocol: To determine the kinetics of CIR 3 covalent labelling of anti-DNP IgG, a modified octet protocol was developed to accommodate the weaker binding affinity of glutamate urea on CIR 3 for biotinylated PSMA, which was loaded onto streptavidin coated octet probes in these experiments. First, streptavidin probes from ForteBio were placed in wells each containing 250 μl solutions composed of 100 nM biotinylated PSMA in kinetics Buffer (1×) spiked with 1% (v/v) DMSO for 20 minutes in an Octet Red96 instrument. The RPM was 1000, the temperature was held at 30° C., and the acquisition rate was 5 Hz. Following washing and baseline steps described above, the probes were then placed in a solution containing 200 nM CIR 3+100 nM anti-DNP IgG (Ab) that already had been allowed to react for varying amounts of time away from the octet instrument to form CIR 3-Ab, followed by quenching with 1 mM DNP-Glycine competitor to disrupt non covalent complex [CIR 3:Ab]. The association of CIR 3-Ab (already formed in solution) with PSMA coated probe was monitored, and the initial rates and final signal plateau measured as a function of the concentration of CIR 3-Ab formed with incubation time away from the octet instrument in solution. […]

O=C(O)CC[C@H](NC(=O)N[C@@H](CCCCNC(=O)NCCOCCOCCOCCOCCOCCOCCOCCOC(=O)n1cnc(CCNC(=O)CNc2ccc([N+](=O)[O-])cc2[N+](=O)[O-])c1)C(=O)O)C(=O)O [CIR 3]
covalent labeling of anti-DNP mAb ([1]; 75 nM mAb, 500 nM CIR 3): selectively covalently modify mAb albeit with modestly slower kinetics
Kinact/Kl ^c ([1]; mAb): 1730 ± 1040 M⁻¹ s⁻¹
Kinact^c ([1]; mAb, 75 nM antibody): 2.0 × 10^−4 ± 0 s^−1
Ki ([1]; mAb, read-out: Kl ^c): 160 ± 70 nM
pseudo intramolecular complex labelling rate constant k=kobs/0.5 ([2]; 200 nM CIR 3 + 100 nM anti-DNP IgG): 0.51 h⁻¹
rate constant k2 ([2]; solution labelling, PSMA coated probes): 0.00014 s⁻¹
